Our source for the IC50 values is patent US10722501B2 (BAYER AKTIENGESELLSCHAFT, priority 2016, dated 2020).

By IC50 is commonly meant the point on the concentration scale where inhibition reaches its midpoint.

The assay deals with T1, recombinant full-length human prolyl endopeptidase (PREP) (Homo sapiens, UniProt P48147).
T1 construct: To recombinant full-length human prolyl endopeptidase (PREP, R&D-Systems, 4308-SE); purchased R&D-Systems 4308-SE
T1 sequence (P48147 1-710): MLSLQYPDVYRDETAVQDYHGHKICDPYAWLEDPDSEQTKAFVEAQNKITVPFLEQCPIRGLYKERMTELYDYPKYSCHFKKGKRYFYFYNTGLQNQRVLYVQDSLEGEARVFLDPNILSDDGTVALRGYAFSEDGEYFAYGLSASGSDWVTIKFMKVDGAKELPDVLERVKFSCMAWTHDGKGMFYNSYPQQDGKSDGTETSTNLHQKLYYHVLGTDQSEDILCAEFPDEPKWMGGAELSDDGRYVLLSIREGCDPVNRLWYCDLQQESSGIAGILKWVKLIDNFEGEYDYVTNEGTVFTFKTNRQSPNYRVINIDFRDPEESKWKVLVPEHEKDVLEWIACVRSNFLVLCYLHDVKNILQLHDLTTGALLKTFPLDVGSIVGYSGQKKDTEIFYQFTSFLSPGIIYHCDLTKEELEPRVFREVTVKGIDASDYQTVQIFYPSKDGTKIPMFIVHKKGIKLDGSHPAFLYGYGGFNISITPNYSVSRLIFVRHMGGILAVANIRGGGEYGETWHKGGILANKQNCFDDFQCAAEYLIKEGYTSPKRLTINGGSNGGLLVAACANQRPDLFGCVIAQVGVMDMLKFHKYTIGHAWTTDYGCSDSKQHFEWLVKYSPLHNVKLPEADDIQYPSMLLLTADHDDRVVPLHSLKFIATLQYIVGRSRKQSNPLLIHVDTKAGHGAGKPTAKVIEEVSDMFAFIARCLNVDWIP
The experiment in a line: Biochemical human prolyl endopeptidase (PREP) assay with fluorescently labelled substrate. The settings on record: substrate Z-Gly-Pro-AMC 50 μM, 32° C., 60 min; some as mean values from multiple independent determinations. The essentials: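 Initial rates of fluorescence increase from 50 μM Z-Gly-Pro-AMC cleavage (ex 360/em 465 nm, 60 min, 32° C) give percent PREP activity versus no-compound control, and IC50 is interpolated. Enzyme used at 0.4 nM (final, example) in Tris pH 7.5 with EDTA, GSH, BSA and Brij-35; compounds span 1 nM to 30 μM.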
For the molecule `O=C([C@@H]1CCCc2nn(Cc3ccc(F)c(Cl)c3)c(=O)n21)N1C[C@@H](F)[C@@H](F)C1` [Example 456, (5S)-2-(3-Chloro-4-fluorobenzyl)-5-{[(3R,4S)-3,4-difluoropyrrolidin-1-yl]carbonyl}-5,6,7,8-tetrahydro[1,2,4]triazolo[4,3-a]pyridin-3(2H)-one], the IC50 was found to be 0.27 nM.
With `CC1CCC(C(=O)N2CC[C@H](F)C2)n2c1nn(Cc1ccc(C(F)(F)F)nc1)c2=O` (mixture of isomers) [Example 220, (5RS,8RS)-5-{[(3S)-3-Fluoropyrrolidin-1-yl]carbonyl}-8-methyl-2-{[6-(trifluoromethyl)pyridin-3-yl]methyl}-5,6,7,8-tetrahydro[1,2,4]triazolo[4,3-a]pyridin-3(2H)-one], the IC50 stood at 1.5 nM.
For the molecule `CCn1ccnc1Cn1nc2n(c1=O)C(C(=O)N1CCCC1)CCC2` (racemic) [Example 70, (5RS)-2-[(1-Ethyl-1H-imidazol-2-yl)methyl]-5-(pyrrolidin-1-ylcarbonyl)-5,6,7,8-tetrahydro[1,2,4]triazolo[4,3-a]pyridin-3(2H)-one], the half-maximal inhibitory concentration (IC50) is 11 nM.
For `O=C([C@@H]1CCCc2nn(Cc3cc(C(F)(F)F)ccn3)c(=O)n21)N1CCCC1` [Example 93, (5S)-5-(Pyrrolidin-1-ylcarbonyl)-2-{[4-(trifluoromethyl)pyridin-2-yl]methyl}-5,6,7,8-tetrahydro[1,2,4]triazolo[4,3-a]pyridin-3(2H)-one] the value was 6 nM.
In the case of `O=C(C1CCCc2nn(Cc3ccc(Cl)cn3)c(=O)n21)N1CCCC1` (single isomer, unassigned) [Example 34, (5RS)-2-[(5-Chloropyridin-2-yl)methyl]-5-(pyrrolidin-1-ylcarbonyl)-5,6,7,8-tetrahydro[1,2,4]triazolo[4,3-a]pyridin-3(2H)-one], the IC50 stood at 7.5 nM.
Consider `O=C([C@@H]1CCCc2nn(Cc3ccc(Cl)nc3)c(=O)n21)N1CCC2CC21` (single isomer, unassigned) [Example 198], for which the IC50 was determined as 1.03 nM.
The figure for `Cc1ccc(Cn2nc3n(c2=O)C(C(=O)N2C[C@H]4C[C@H]4C2)CCC3)cc1` (mixture of isomers) [Example 126, (5RS)-5-[(cis)-3-Azabicyclo[3.1.0]hex-3-ylcarbonyl]-2-(4-methylbenzyl)-5,6,7,8-tetrahydro[1,2,4]triazolo[4,3-a]pyridin-3(2H)-one] is 28.4 nM.
For `O=C([C@@H]1CCCc2nn(Cc3ncc(Cl)cc3F)c(=O)n21)N1CCC(F)(F)C1` [Example 406, (5S)-2-[(5-Chloro-3-fluoropyridin-2-yl)methyl]-5-[(3,3-difluoropyrrolidin-1-yl)carbonyl]-5,6,7,8-tetrahydro[1,2,4]triazolo[4,3-a]pyridin-3(2H)-one] the value was 3.6 nM; for `O=C(C1CC(C(F)(F)F)Cc2nn(Cc3ccc(C(F)(F)F)nc3)c(=O)n21)N1CC(O)C1` (single isomer, unassigned) [Example 234, (5RS,7RS)-5-[(3-Hydroxyazetidin-1-yl)carbonyl]-7-(trifluoromethyl)-2-{[6-(trifluoromethyl)pyridin-3-yl]methyl}-5,6,7,8-tetrahydro[1,2,4]triazolo[4,3-a]pyridin-3(2H)-one], 120 nM.
For the molecule `O=C(C1CCC(C(F)(F)F)c2nn(Cc3ccc(C(F)(F)F)nc3)c(=O)n21)N1C[C@@H](F)[C@@H](F)C1` (mixture of isomers) [Example 270, (5RS,8RS)-5-{[(3R,4S)-3,4-Difluoropyrrolidin-1-yl]carbonyl}-8-(trifluoromethyl)-2-{[6-(trifluoromethyl)pyridin-3-yl]methyl}-5,6,7,8-tetrahydro[1,2,4]triazolo[4,3-a]pyridin-3(2H)-one], the IC50 was found to be 2 nM.
For `O=C([C@@H]1CCC(O)c2nn(Cc3ncc(F)cc3F)c(=O)n21)N1CC[C@H](F)C1` (mixture of isomers) [Example 585, (5S,8SR)-2-[(3,5-Difluoropyridin-2-yl)methyl]-5-{[(3S)-3-fluoropyrrolidin-1-yl]carbonyl}-8-hydroxy-5,6,7,8-tetrahydro[1,2,4]triazolo[4,3-a]pyridin-3(2H)-one] the value was 0.43 nM; for `CC(c1ccc(C(F)(F)F)nc1)n1nc2n(c1=O)[C@H](C(=O)N1CC[C@H](F)C1)CCC2` (single isomer, unassigned) [Example 216], 0.56 nM; for `O=C([C@@H]1CCCc2nn(Cc3nccc(C(F)(F)F)c3Cl)c(=O)n21)N1CC[C@H](F)C1` [Example 392, (5S)-2-{[3-Chloro-4-(trifluoromethyl)pyridin-2-yl]methyl}-5-{[(3S)-3-fluoropyrrolidin-1-yl]carbonyl}-5,6,7,8-tetrahydro[1,2,4]triazolo[4,3-a]pyridin-3(2H)-one], 0.46 nM.
As for `O=C([C@@H]1CCCc2nn(Cc3ccc(C(F)(F)F)nc3)c(=O)n21)N1CC(F)C(F)C1` (single isomer, unassigned) [Example 554], the IC50 was 10 nM.
For `COc1ccc(Cn2nc3n(c2=O)[C@H](C(=O)N2CCCC2)CCC3)cn1` [Example 538, (5S)-2-[(6-Methoxypyridin-3-yl)methyl]-5-(pyrrolidin-1-ylcarbonyl)-5,6,7,8-tetrahydro[1,2,4]triazolo[4,3-a]pyridin-3(2H)-one], the 50% inhibitory concentration (IC50) was determined as 0.82 nM.
The figure for `O=C(C1C(C(F)(F)F)CCc2nn(Cc3ccc(Cl)cn3)c(=O)n21)N1CC[C@H](F)C1` (single isomer, unassigned) [Example 299] is 3.5 nM; for `O=C([C@@H]1CCCc2nn(Cc3cc(F)c(F)cc3F)c(=O)n21)N1CC[C@H](F)C1` [Example 493, (5S)-5-{[(3S)-3-Fluoropyrrolidin-1-yl]carbonyl}-2-(2,4,5-trifluorobenzyl)-5,6,7,8-tetrahydro[1,2,4]triazolo[4,3-a]pyridin-3(2H)-one] it is 0.32 nM; for `Cc1ccc(C2(Cn3nc4n(c3=O)[C@H](C(=O)N3CC[C@H](F)C3)CCC4)CC2)cc1` [Example 526, (5S)-5-{[(3S)-3-Fluoropyrrolidin-1-yl]carbonyl}-2-{[1-(4-methylphenyl)cyclopropyl]methyl}-5,6,7,8-tetrahydro[1,2,4]triazolo[4,3-a]pyridin-3(2H)-one] it is 0.38 nM.
The figure for `O=C([C@@H]1CCC(F)(F)c2nn(Cc3ncc(Cl)cc3F)c(=O)n21)N1CC[C@H](F)C1` [Example 556, (5S)-2-[(5-chloro-3-fluoropyridin-2-yl)methyl]-8,8-difluoro-5-{[(3S)-3-fluoropyrrolidin-1-yl]carbonyl}-5,6,7,8-tetrahydro[1,2,4]triazolo[4,3-a]pyridin-3(2H)-one] is 0.63 nM; for `O=C(C1CCc2nn(Cc3ccc(Cl)nc3)c(=O)n21)N1CC[C@H](F)C1` (mixture of isomers) [Example 163, (5RS)-2-[(6-Chloropyridin-3-yl)methyl]-5-{[(3S)-3-fluoropyrrolidin-1-yl]carbonyl}-2,5,6,7-tetrahydro-3H-pyrrolo[2,1-c][1,2,4]triazol-3-one] it is 2.8 nM; for `O=C([C@@H]1CCCc2nn(Cc3ccc(Br)cc3)c(=O)n21)N1C[C@@H](F)[C@@H](F)C1` [Example 210, (5S)-2-(4-Bromobenzyl)-5-{[(3R,4S)-3,4-difluoropyrrolidin-1-yl]carbonyl}-5,6,7,8-tetrahydro[1,2,4]triazolo[4,3-a]pyridin-3(2H)-one] it is 0.27 nM.
The figure for `Cn1nc(Cn2nc3n(c2=O)[C@H](C(=O)N2CC(F)C2)CCC3)c2cccnc21` [Example 534, (5S)-5-[(3-Fluoroazetidin-1-yl)carbonyl]-2-[(1-methyl-1H-pyrazolo[3,4-b]pyridin-3-yl)methyl]-5,6,7,8-tetrahydro[1,2,4]triazolo[4,3-a]pyridin-3(2H)-one] is 1.23 nM.
For the molecule `O=C(C1CCc2nn(Cc3ccnc(C(F)(F)F)c3F)c(=O)n21)N1CC[C@H](F)C1` (mixture of isomers) [Example 178, (5RS)-5-{[(3S)-3-Fluoropyrrolidin-1-yl]carbonyl}-2-{[3-fluoro-2-(trifluoromethyl)pyridin-4-yl]methyl}-2,5,6,7-tetrahydro-3H-pyrrolo[2,1-c][1,2,4]triazol-3-one], the 50% inhibitory concentration (IC50) was found to be 1.3 nM.
The figure for `O=C([C@@H]1CCC(F)(F)c2nn(Cc3ncc(C(F)(F)F)cc3Cl)c(=O)n21)N1CCC(F)(F)C1` [Example 590, (5S)-2-{[3-Chloro-5-(trifluoromethyl)pyridin-2-yl]methyl}-5-[(3,3-difluoropyrrolidin-1-yl)carbonyl]-8,8-difluoro-5,6,7,8-tetrahydro[1,2,4]triazolo[4,3-a]pyridin-3(2H)-one] is 3.9 nM.
For `O=C(C1CCCc2nn(Cc3cc(F)c(F)cc3F)c(=O)n21)N1CCCC1` (racemic) [Example 89, (5RS)-5-(Pyrrolidin-1-ylcarbonyl)-2-(2,4,5-trifluorobenzyl)-5,6,7,8-tetrahydro[1,2,4]triazolo[4,3-a]pyridin-3(2H)-one], the IC50 is 1.3 nM.
